Assay results reported in ChEMBL document CHEMBL3870340, “Cytotoxic activity, apoptosis induction and structure-activity relationship of 8-OR-2-aryl-3,4-dihydroisoquinolin-2-ium salts as promising anticancer agents” (Bioorg Med Chem Lett, 2017).
Active and inactive are the calls of the source. No cut-off for these calls is given here.

Columns and labels:
NB-4 [1] = assay: Induction of apoptosis in human NB4 cells assessed as early apoptotic cells at 11.5 uM after 48 hrs by annexin V/PI double staining based flow cytometry (reference value: 2.3%); type: functional
MKN-45 [2] = assay: Induction of apoptosis in human MKN45 cells after 48 hrs by annexin V/PI double staining based flow cytometry; type: functional, cell-based
MKN-45 [3] = assay: Induction of morphological changes in human MKN45 cells assessed as late apoptotic cells at 10.1 uM after 48 hrs by acridine orange/ethidium bromide staining based fluorescence microscopy; type: functional, cell-based
[4] = Antiproliferative activity against human MKN45 cells at 20 uM after 48 hrs by MTT assay relative to control; type: functional; details: MKN-45, 48 h, read-out: GI
[5] = Cytotoxicity against human MKN45 cells assessed as decrease in cell viability after 48 hrs by MTT assay; type: functional, cell-based; details: MKN-45, 48 h
MKN-45 [6] = assay: Induction of apoptosis in human MKN45 cells assessed as late apoptotic cells at 10.1 uM after 48 hrs by annexin V/PI double staining based flow cytometry (reference value: 0%); type: functional
[7] = Antiproliferative activity against human NB4 cells at 5 uM after 48 hrs by MTT assay relative to control; type: functional; details: NB-4, 48 h, read-out: GI
MKN-45 [8] = assay: Induction of morphological changes in human MKN45 cells assessed as cell shrinkage at 0.41 uM after 48 hrs by acridine orange/ethidium bromide staining based fluorescence microscopy; type: functional
MKN-45 [9] = assay: Induction of apoptosis in human MKN45 cells assessed as late apoptotic cells at 2.03 uM after 48 hrs by annexin V/PI double staining based flow cytometry (reference value: 0%); type: functional
MKN-45 [10] = assay: Induction of apoptosis in human MKN45 cells after 48 hrs by acridine orange/ethidium bromide staining based fluorescence microscopy; type: functional, cell-based
MKN-45 [11] = assay: Induction of apoptosis in human MKN45 cells assessed as necrotic cells at 10.1 uM after 48 hrs by annexin V/PI double staining based flow cytometry (reference value: 0.1%); type: functional
NB-4 [12] = assay: Induction of apoptosis in human NB4 cells assessed as late apoptotic cells at 11.5 uM after 48 hrs by annexin V/PI double staining based flow cytometry (reference value: 0.7%); type: functional
MKN-45 [13] = assay: Induction of apoptosis in human MKN45 cells assessed as early apoptotic cells at 2.03 uM after 48 hrs by annexin V/PI double staining based flow cytometry (reference value: 0.1%); type: functional
MKN-45 [14] = assay: Induction of apoptosis in human MKN45 cells assessed as early apoptotic cells at 10.1 uM after 48 hrs by annexin V/PI double staining based flow cytometry (reference value: 0.1%); type: functional
MKN-45 [15] = assay: Induction of morphological changes in human MKN45 cells assessed as apoptotic cells at 2.03 uM after 48 hrs by acridine orange/ethidium bromide staining based fluorescence microscopy; type: functional, cell-based
NB-4 [16] = assay: Induction of apoptosis in human NB4 cells assessed as viable cells at 2.30 uM after 48 hrs by annexin V/PI double staining based flow cytometry (reference value: 96.4%); type: functional; details: NB-4, 48 h, read-out: Activity
NB-4 [17] = assay: Induction of apoptosis in human NB4 cells assessed as necrotic cells at 2.30 uM after 48 hrs by annexin V/PI double staining based flow cytometry (reference value: 0.6%); type: functional
NB-4 [18] = assay: Induction of morphological changes in human NB4 cells assessed as apoptotic features at 0.46 to 11.5 uM after 48 hrs by acridine orange/ethidium bromide staining based fluorescence microscopy; type: functional, cell-based
[19] = Cytotoxicity against primary goat fetal fibroblast assessed as decrease in cell viability after 48 hrs by MTT assay; type: toxicity; details: goat (Capra hircus), primary goat fetal fibroblasts
MKN-45 [20] = assay: Induction of apoptosis in human MKN45 cells assessed as viable cells at 10.1 uM after 48 hrs by annexin V/PI double staining based flow cytometry (reference value: 99.8%); type: functional; details: MKN-45, 48 h, read-out: Activity
MKN-45 [21] = assay: Induction of morphological changes in human MKN45 cells assessed as pyknosis in early apoptotic events at 0.41 uM after 48 hrs by acridine orange/ethidium bromide staining based fluorescence microscopy; type: functional, cell-based
[22] = Cytotoxicity against human NB4 cells assessed as decrease in cell viability after 48 hrs by MTT assay; type: functional, cell-based; details: NB-4, 48 h
NB-4 [23] = assay: Induction of apoptosis in human NB4 cells assessed as late apoptotic cells at 2.30 uM after 48 hrs by annexin V/PI double staining based flow cytometry (reference value: 0.7%); type: functional
MKN-45 [24] = assay: Induction of apoptosis in human MKN45 cells assessed as viable cells at 2.03 uM after 48 hrs by annexin V/PI double staining based flow cytometry (reference value: 99.8%); type: functional; details: MKN-45, 48 h, read-out: Activity
NB-4 [25] = assay: Induction of apoptosis in human NB4 cells assessed as early apoptotic cells at 2.30 uM after 48 hrs by annexin V/PI double staining based flow cytometry (reference value: 2.3%); type: functional
[26] = Cytotoxicity against primary porcine fetal kidney cells assessed as decrease in cell viability after 48 hrs by MTT assay; type: toxicity, cell-based; details: pig (Sus scrofa)
MKN-45 [27] = assay: Induction of morphological changes in human MKN45 cells assessed as condensation of cell nuclei and chromatins at 0.41 uM after 48 hrs by acridine orange/ethidium bromide staining based fluorescence microscopy; type: functional
NB-4 [28] = assay: Induction of apoptosis in human NB4 cells assessed as necrotic cells at 11.5 uM after 48 hrs by annexin V/PI double staining based flow cytometry (reference value: 0.6%); type: functional
NB-4 [29] = assay: Induction of apoptosis in human NB4 cells after 48 hrs by annexin V/PI double staining based flow cytometry; type: functional, cell-based
NB-4 [30] = assay: Induction of apoptosis in human NB4 cells assessed as viable cells at 11.5 uM after 48 hrs by annexin V/PI double staining based flow cytometry (reference value: 96.4%); type: functional; details: NB-4, 48 h, read-out: Activity
MKN-45 [31] = assay: Induction of apoptosis in human MKN45 cells assessed as necrotic cells at 2.03 uM after 48 hrs by annexin V/PI double staining based flow cytometry (reference value: 0.1%); type: functional
MKN-45 [32] = assay: Induction of morphological changes in human MKN45 cells assessed as change in cytomembrane permeability at 0.41 uM after 48 hrs by acridine orange/ethidium bromide staining based fluorescence microscopy; type: functional, cell-based

COc1cccc2c1C=[N+](c1ccccc1I)CC2.[Br-]
Activity (NB-4 [1]): 14.7% | Activity (MKN-45 [2]): Dose-dependent effect | Activity (MKN-45 [3]): Active | inhibition of growth at 20 µM [4]: 90.9% | IC50 [5]: 2030 nM | Activity (MKN-45 [6]): 32% | inhibition of growth at 5 µM [7]: 49.7% | Activity (MKN-45 [8]): Active | Activity (MKN-45 [9]): 4.6% | Activity (MKN-45 [10]): Dose-dependent effect | Activity (MKN-45 [11]): 1.9% | Activity (NB-4 [12]): 7.1% | Activity (MKN-45 [13]): 12.8% | Activity (MKN-45 [14]): 20.1% | Activity (MKN-45 [15]): Active | viability at 2.3 µM (NB-4 [16]): 90.1% | Activity (NB-4 [17]): 0% | Activity (NB-4 [18]): Active | IC50 at 48 h [19]: 3510 nM | viability at 10.1 µM (MKN-45 [20]): 46% | Activity (MKN-45 [21]): Active | IC50 [22]: 2300 nM | Activity (NB-4 [23]): 2.2% | viability at 2.03 µM (MKN-45 [24]): 82.2% | Activity (NB-4 [25]): 7.7% | IC50 at 48 h [26]: 2410 nM | Activity (MKN-45 [27]): Active | Activity (NB-4 [28]): 0.3% | Activity (NB-4 [29]): Dose-dependent effect | viability at 11.5 µM (NB-4 [30]): 77.9% | Activity (MKN-45 [31]): 0.4% | Activity (MKN-45 [32]): Active
